Several values for one entry are separate records, joined by “and”; a condition that tells them apart may be missing. Identical values can stand only once.
Tests used:
CYP2C8 = details: in vitro study; cited from earlier work
[1] = cited from earlier work
CYP2C19 = details: in vitro study; cited from earlier work
[2] = viloxazine ER 900 mg/day from Day 3; Day 4; p values > 0.05
[3] = cited from earlier work; remark: listed apart in the source
[4] = viloxazine ER 900 mg qd, steady state
CYP2D6 = details: cited from earlier work
CYP3A4 = details: cited from earlier work
CYP1A2 = details: cited from earlier work
CYP2B6 = details: published in vitro study; cited from earlier work
CYP2C9 = details: in vitro study; cited from earlier work
[5] = combination vs MCC alone

| SMILES | in vitro inhibition of CYP2C8 (CYP2C8) | 5-hydoxyviloxazine metabolites, share of the metabolized fraction of the drug [1] | dose excreted unchanged [1] | in vitro inhibition of CYP2C19 (CYP2C19) | attainment of steady state [2] | change in Cmax when coadministered with paroxetine [3] | increase in AUC when coadministered with paroxetine [3] [%] | AUC24 higher in CYP2D6 PMs than EMs [4] | Cmax higher in CYP2D6 PMs than EMs [4] [%] | Cmin higher in CYP2D6 PMs than EMs [4] [%] | ki (CYP2D6; in vitro, [dextromethorphan]) [µg/mL] | in vitro inhibition of CYP2D6 (CYP2D6; published in vitro study) | ki (CYP3A4; in vitro, [midazolam]) [µg/mL] | in vitro inhibition of CYP3A4/5 (CYP3A4; published in vitro study) | ki (CYP1A2; in vitro, [caffeine]) [µg/mL] | in vitro inhibition of CYP1A2 (CYP1A2; published in vitro study) | in vitro inhibition of CYP2B6 (CYP2B6) | in vitro inhibition of CYP2C9 (CYP2C9) | prolongation of median Tmax with viloxazine ER vs MCC alone [5] [h] |
| --- | --- | --- | --- | --- | --- | --- | --- | --- | --- | --- | --- | --- | --- | --- | --- | --- | --- | --- | --- |
| CCOc1ccccc1OCC1CNCCO1 (stereo not shown) [viloxazine] | no meaningful inhibition | about 50% | approximately 22% | no meaningful inhibition | second day of dosing | no changes | < 35 | 26% and 25% | 21 | 33 | 12.7 | weak inhibitor | 26.8 | weak inhibitor | 0.124 | strong, reversible inhibitor | weak inhibitor | no meaningful inhibition | – |
| COc1ccc2c(c1)[C@]13CCCC[C@@H]1[C@H](C2)N(C)CC3 [Dextromethorphan, dextromethorphan] | – | – | – | – | – | – | – | – | – | – | – | – | – | – | – | – | – | – | 1 |

Source: paper PMC11088557 (Clinical Drug Investigation, 2024)
